According to paper PMC9653995, “New Positive TRPC6 Modulator Penetrates Blood–Brain Barrier, Eliminates Synaptic Deficiency and Restores Memory Deficit in 5xFAD Mice” (International Journal of Molecular Sciences, 2022):

What was measured:
[1] = In vivo pharmacokinetics in plasma and brain after single i.p. injection; design: species or system CD-1 mice; details: mice, 10 mg/kg i.p.
Description: Two-month-old CD-1 mice (males) were used for pharmacokinetic studies. CD-1 mice were obtained from Charles River GmbH and housed in the laboratory of bioanalytics of the ChemRar research institute. The number of animals in the study was kept at a minimum in terms of ethical principles and regulatory requirements.
The study was carried out on 20 mice. Five animals constituted the control group, which were not injected with the C20 substance. The remaining 15 animals were divided into 5 groups of 3 animals per time point. At least 12 h before the start of the experiment, the animals were deprived of food with free access to water.
All 15 animals from the experimental groups underwent a single intraperitoneal injection of the C20 formulation at a dose of 10 mg/kg (formulation containing 10% ethanol). After 0.25, 0.5, 1, 2, and 4 h, CO2 euthanasia was performed in each group of animals in accordance with the time point. Blood plasma and brain samples were obtained.
Blood was collected by cardiopuncture in a volume of 0.2 mL into polypropylene tubes containing 20 μL of 5% EDTA. Blood plasma was separated by centrifugation at 10,000 rpm for 10 min.
Pharmacokinetic analysis was performed by a non-compartmental method using the Phoenix WinNonlin 6.3 software package (Pharsight Corporation, Mountain View, CA, USA) and in accordance with SOP-BL-AN-027 “Calculation and analysis of parameters of pharmacokinetic and toxicokinetic studies. Statistical processing of results”.
Analysis of pharmacokinetic parameters was performed using averaged pharmacokinetic curves in the plasma and brain. The main pharmacokinetic parameters were determined:
The intensity of C20 penetration into the brain was assessed in terms of tissue availability (ft):(1) ft=AUCt/AUCk, where AUCt is the area under the pharmacokinetic curve in the tissue; AUCk is the area under the pharmacokinetic curve in blood plasma.

[2] = test system: hippocampal slices from 8-month-old 5xFAD mice; experiment: LTP induction (HFS) in hippocampal Schaffer collateral-CA1 synapses of brain slices, fEPSP recording; format: cell-based, mouse; details: 100 nM, normalized to baseline, mean ± SEM
Description: Long-term potentiation (LTP) is considered a cellular mechanism for long-term memory. LTP deficits have been reported in AD mouse models including 5xFAD mice. We examined whether C20 could improve synaptic plasticity in hippocampal slices of 5xFAD mice. LTP was induced in hippocampal Schaffer collateral-CA1 synapses by high-frequency stimulation (HFS).
Mouse transcardial perfusion was performed with 0–2 °C of holding buffer containing (in mM): 124 NaCl, 2.5 KCl, 24 NaHCO3, 1.2 NaH2PO4, 5 HEPES, 0.5 CaCl2*2H2O, 10 MgCl2*7H2O, 3 Na-pyruvate, and 12.5 D-glucose. […]
After incubation, the slices were placed in a recording chamber and perfused with a constant flow of recording buffer saturated with carbogen. […] Field excitatory postsynaptic potentials (fEPSPs) were recorded from CA1 stratum radiatum in recording buffer (124 mM NaCl, 2.5 mM KCl, 24 mM NaHCO3, 1.2 mM NaH2PO4, 5 mM HEPES, 2 mM CaCl2*2H2O, 0.8 mM MgCl2*7H2O, and 12.5 mM D-glucose) using borosilicate glass microelectrodes (300–400 kΩ) filled with recording buffer. […] Electrophysiological field responses were amplified and controlled using a Multiclamp 700B (Molecular Devices, Sunnyvale, CA, USA), digitized by Digidata 1440A (Molecular Devices, USA) and analyzed by pClamp 10.6 (Axon Instruments, Union City, California, USA). […] The amplitude and slope of the rising phase of EPSP at a level of 20–80% of the peak amplitude were measured. […]

concentration in brain samples after 4 h [1]: 10 ng/g
half-life (t1/2) of elimination from plasma [1]: 31.2 min
half-life (t1/2) of excretion from the brain [1]: 44.4 min
maximum concentration in plasma ([1]; formulation with 10% ethanol): 789 ng/mL
time of maximum concentration (plasma and brain) ([1]; first sampling point): 15 min
index of tissue availability in the brain (ft) in relation to blood plasma ([1]; ft = AUCt/AUCk): 1.05
SMILES: COc1cc2c(cc1OC)C(c1cc3ccccc3oc1=O)=NC(C)(C)C2 [C20, 3-(3-,4-Dihydro-6,7-dimethoxy-3,3-dimethyl-1-isoquinolinyl)-2H-1-benzopyran-2-one]
average fEPSP slope 30–40 min after HFS ([2]; 8-month-old 5xFAD slices, 5xFAD alone 115.5 ± 3.0%): 149.4 ± 9.7%
average fEPSP slope 30–40 min after HFS ([2]; WT slices, WT alone 168.7 ± 4.8%): 161.4 ± 9.6%
